Experimental data reported in patent US20090036450A1, “PYRAZOLE COMPOUNDS AND USE THEREOF” (JAPAN TOBACCO, INC., priority 2006, published 2009).
Where a name gives a salt, the structure may show the parent alone.

Biological target: T1, human liver glycogen phosphorylase (Homo sapiens, UniProt P06737)
T1 construct: made in house; host or cells: Sf9 insect cells (suspension of disrupted cells, diluted in BES buffer, not purified)
T1 sequence (P06737 1-847): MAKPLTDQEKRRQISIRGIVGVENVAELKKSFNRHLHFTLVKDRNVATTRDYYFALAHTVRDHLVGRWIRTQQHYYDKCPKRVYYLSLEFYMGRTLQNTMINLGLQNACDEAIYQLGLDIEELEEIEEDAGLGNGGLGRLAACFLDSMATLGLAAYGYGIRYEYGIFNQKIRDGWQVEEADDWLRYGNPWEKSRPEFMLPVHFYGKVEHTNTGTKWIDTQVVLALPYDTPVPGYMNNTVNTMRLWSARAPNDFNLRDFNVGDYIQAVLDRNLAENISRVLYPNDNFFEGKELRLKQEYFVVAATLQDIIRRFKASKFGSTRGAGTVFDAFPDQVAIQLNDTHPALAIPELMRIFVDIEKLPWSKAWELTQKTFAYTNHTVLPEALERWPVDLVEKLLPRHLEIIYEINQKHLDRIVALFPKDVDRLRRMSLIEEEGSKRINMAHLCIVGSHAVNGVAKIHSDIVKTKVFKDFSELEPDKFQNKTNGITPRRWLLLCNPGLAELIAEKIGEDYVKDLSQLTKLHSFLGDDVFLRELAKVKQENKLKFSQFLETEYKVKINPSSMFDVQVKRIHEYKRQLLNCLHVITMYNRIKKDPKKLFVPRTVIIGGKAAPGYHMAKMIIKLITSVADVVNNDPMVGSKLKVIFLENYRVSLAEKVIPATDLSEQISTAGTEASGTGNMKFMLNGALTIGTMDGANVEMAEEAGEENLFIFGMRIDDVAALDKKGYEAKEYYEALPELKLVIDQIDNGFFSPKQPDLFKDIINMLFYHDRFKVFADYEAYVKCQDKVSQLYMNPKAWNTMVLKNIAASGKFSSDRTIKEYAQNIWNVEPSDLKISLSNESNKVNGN
Test: Liver glycogen phosphorylase activity, forward reaction system (NADPH detection at 340 nm)
Format: biochemical
Settings: enzyme inhibitory activity against recombinant human liver glycogen phosphorylase (Sf9 cell lysate), room temperature, 75 minutes
Method in brief: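 Recombinant human liver glycogen phosphorylase from Sf9 lysate, run in forward direction with glycogen and phosphate substrate plus glucose, coupled via phosphoglucomutase/G6PDH to NADPH formation. BES buffer pH 6.8, room temperature, 75 min; A340 change minus blank gives activity. IC50 from percent inhibition vs DMSO control.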

Row | Compound | IC50
1 | Cc1nc(COc2ccccc2)oc1CNC(=O)c1cc(NC(=O)c2cc(F)c(F)cc2Cl)[nH]n1 [Example 1-44, 5-(2-chloro-4,5-difluoro-benzoylamino)-1H-pyrazole-3-carboxylic acid (4-methyl-2-phenoxymethyl-oxazol-5-ylmethyl)-amide] | < 100 nM
2 | Cc1nc(CCc2ccccc2)c(CNC(=O)c2cc(NC(=O)c3cc(F)c(F)cc3Cl)[nH]n2)o1 [Example 1-33, 5-(2-chloro-4,5-difluoro-benzoylamino)-1H-pyrazole-3-carboxylic acid (2-methyl-4-phenethyl-oxazol-5-ylmethyl)-amide] | < 100 nM
3 | O=C(NCc1n[nH]c(-c2ccc(Cl)cc2)n1)c1cc(NC(=O)c2cc(F)c(F)cc2Cl)[nH]n1 [Example 1-87, 5-(2-chloro-4,5-difluoro-benzoylamino)-1H-pyrazole-3-carboxylic acid [5-(4-chloro-phenyl)-1H-[1,2,4]triazol-3-ylmethyl]-amide] | < 100 nM
4 | Cc1ncc(CNC(=O)c2cc(NC(=O)c3cc(F)c(F)cc3Cl)[nH]n2)c(-c2cccc(F)c2)n1 [Example 1-79, 5-(2-chloro-4,5-difluoro-benzoylamino)-1H-pyrazole-3-carboxylic acid [4-(3-fluoro-phenyl)-2-methyl-pyrimidin-5-ylmethyl]-amide] | < 100 nM
5 | O=C(NCc1cnc(C2CC2)nc1C1CC1)c1cc(NC(=O)c2cc(F)c(F)cc2Cl)[nH]n1 [Example 1-82, 5-[2-chloro-4,5-difluoro-benzoylamino)-1H-pyrazole-3-carboxylic acid (2,4-dicyclopropyl-pyrimidin-5-ylmethyl)-amide hydrochloride] | < 100 nM
6 | Cc1nc(-c2cc3ccccc3s2)sc1CNC(=O)c1cc(NC(=O)c2cc(F)c(F)cc2Cl)[nH]n1 [Example 1-9, 5-(2-chloro-4,5-difluoro-benzoylamino)-1H-pyrazole-3-carboxylic acid (2-benzo[b]thiophen-2-yl-4-methyl-thiazol-5-ylmethyl)-amide] | < 100 nM
7 | Cc1noc(-c2noc(C)c2CNC(=O)c2cc(NC(=O)c3cc(F)c(F)cc3Cl)[nH]n2)n1 [Example 1-70, 5-(2-chloro-4,5-difluoro-benzoylamino)-1H-pyrazole-3-carboxylic acid [5-methyl-3-(3-methyl-[1,2,4]oxadiazol-5-yl)-isoxazol-4-ylmethyl]-amide] | < 100 nM
8 | Cc1cc(-c2nnc(CNC(=O)c3cc(NC(=O)c4cc(F)c(F)cc4Cl)[nH]n3)o2)[nH]n1 [Example 1-76, 5-(2-chloro-4,5-difluoro-benzoylamino)-1H-pyrazole-3-carboxylic acid [5-(5-methyl-2H-pyrazol-3-yl)-[1,3,4]oxadiazol-2-ylmethyl]-amide] | < 100 nM
9 | Cc1noc(-c2nc(C)oc2CNC(=O)c2cc(NC(=O)c3cc(F)c(F)cc3Cl)[nH]n2)n1 [Example 1-71, 5-(2-chloro-4,5-difluoro-benzoylamino)-1H-pyrazole-3-carboxylic acid [2-methyl-4-(3-methyl-[1,2,4]oxadiazol-5-yl)-oxazol-5-ylmethyl]-amide] | < 100 nM
10 | Cc1ccc(Cn2nnc(CNC(=O)c3cc(NC(=O)c4cc(F)c(F)cc4Cl)[nH]n3)c2C)cc1 [Example 1-64, 5-(2-chloro-4,5-difluoro-benzoylamino)-1H-pyrazole-3-carboxylic acid [5-methyl-1-(4-methyl-benzyl)-1H-[1,2,3]triazol-4-ylmethyl]-amide] | < 100 nM
11 | COc1ccccc1-c1nnc(CNC(=O)c2cc(NC(=O)c3cc(F)c(F)cc3Cl)[nH]n2)o1 [Example 1-61, 5-(2-chloro-4,5-difluoro-benzoylamino)-1H-pyrazole-3-carboxylic acid [5-(2-methoxy-phenyl)-[1,3,4]oxadiazol-2-ylmethyl]-amide] | < 100 nM
12 | Cc1nc(-c2ccc(Cl)cc2)c(CNC(=O)c2cc(NC(=O)c3cc(F)c(F)cc3Cl)[nH]n2)o1 [Example 1-28, 5-(2-chloro-4,5-difluoro-benzoylamino)-1H-pyrazole-3-carboxylic acid [4-(4-chloro-phenyl)-2-methyl-oxazol-5-ylmethyl]-amide] | < 100 nM

Now from value to molecule:

Row | IC50 | Compound
13 | < 100 nM | Cc1nc(COCC(=O)NCc2ccccc2)oc1CNC(=O)c1cc(NC(=O)c2cc(F)c(F)cc2Cl)[nH]n1 [Example 3-9, 5-(2-chloro-4,5-difluoro-benzoylamino)-1H-pyrazole-3-carboxylic acid [2-(benzylcarbamoyl-methoxymethyl)-4-methyl-oxazol-5-ylmethyl]-amide]
14 | < 100 nM | Cc1nc(CO)oc1CNC(=O)c1cc(NC(=O)c2cc(F)c(F)cc2Cl)[nH]n1 [Example 3-24, 5-(2-chloro-4,5-difluoro-benzoylamino)-1H-pyrazole-3-carboxylic acid (2-hydroxymethyl-4-methyl-oxazol-5-ylmethyl)-amide hydrochloride]
15 | < 100 nM | Cc1nc(C(=O)N2CCCCC2)oc1CNC(=O)c1cc(NC(=O)c2cc(F)c(F)cc2Cl)[nH]n1 [Example 3-15, 5-(2-chloro-4,5-difluoro-benzoylamino)-1H-pyrazole-3-carboxylic acid [4-methyl-2-(piperidine-1-carbonyl)-oxazol-5-ylmethyl]-amide]
16 | < 100 nM | Cc1nc(COCC(=O)N2CCOCC2)oc1CNC(=O)c1cc(NC(=O)c2cc(F)c(F)cc2Cl)[nH]n1 [Example 3-10, 5-(2-chloro-4,5-difluoro-benzoylamino)-1H-pyrazole-3-carboxylic acid [4-methyl-2-(2-morpholin-4-yl-2-oxo-ethoxymethyl)-oxazol-5-ylmethyl]-amide]
17 | < 100 nM | Cc1nc(CNC(=O)c2ccc(Cl)cc2)oc1CNC(=O)c1cc(NC(=O)c2cc(F)c(F)cc2Cl)[nH]n1 [Example 3-13, 5-(2-chloro-4,5-difluoro-benzoylamino)-1H-pyrazole-3-carboxylic acid {2-[(4-chloro-benzoylamino)-methyl]-4-methyl-oxazol-5-ylmethyl}-amide]
